# Results from patent US20250066349A1 (Prothena Biosciences Limited, priority 2021, published 2025).
# Target: T1, DYRK1A (Homo sapiens (Human), UniProt Q13627)
# Assay: not given
# Conditions: cited from earlier work
row,SMILES,mode of DYRK1A inhibition
1,"O=C(O[C@@H]1Cc2c(O)cc(O)cc2O[C@@H]1c1cc(O)c(O)c(O)c1)c1cc(O)c(O)c(O)c1 [EGCG, Epigallocatechin gallate]",non-ATP competitive DYRK1A inhibitor

# Target: T1, DYRK1A
# Assay: DYRK1A Inhibition Assay
# Type: biochemical
# Conditions: Compounds of Formula (I); DYRK1A 1 nM, ATP 20 μM, Ser/Thr 18 peptide 2 μM, 90 minutes; read-out: DYRK1 IC50
# Protocol: DYRK1A—Invitrogen #PV4105
# • Ser/Thr 18 peptide—Invitrogen #PR8227U • Phos-Ser/Thr 18 peptide—Invitrogen #PR8229U • Assay plate—PerkinElmer #6007279 • ATP—Sigma #A7699-5G • Development reagent A—Invitrogen #PR5194B • Development buffer—Invitrogen #PR4876B Compound preparation • 1. Test compounds were diluted to 1 mM in DMSO • 2. Stock was further diluted 3-fold using Echo platform • 3. 100 nL of DMSO into Columns 1 and 24 and 100 nL of compounds dilutions to Columns 2-23 in a plate.
# • 1. Add 5 μL enzyme & substrate mixture to each well in Column 2-23 and A24-H24 wells of the 384-well assay plate; • 2. Add 5 μL 0% Phosphorylation control to A1-H1 and I24-P24 wells of the assay plate; • 3. Add 5 μL 100% Phosphorylation control to I1-P1 wells of the assay plate; • 4. Spin the assay plate (1000 rpm, 1 minute @23° C.); • 5. Incubate enzyme with compounds for 15 minutes at 23° C.; • 6. Add 5 μL ATP solution to each well of the assay plate; • 7. Spin the plate (1000 rpm, 1 minute @23° C.); • 8. Incubate the assay plate for 90 minutes at 23° C.; • 9. Add 10 μL Development reagent A to each well of the assay plate; • 10. Centrifuge the plate at 1000 rpm about 15 seconds and seal a film over assay plate. Incubate the assay plate for 30 minutes at 23° C. • 11. Read assay plates on Envision (see Tables A-D).
# Final Compound Concentrations
# • Assay buffer: 50 mM Hepes pH7.5, 10 mM MgCl2, 1 mM EDTA, 0.01% Brij-35 • DYRK1A: 1 nM • ATP: 20 μM • Ser/Thr 18 peptide: 2 μM • Reaction time: 90 minutes
row,SMILES,IC50 [µM]
1,"Cn1cc(-c2ccc3cnc4[nH]cc(C5CCC(C(=O)N6CCNCC6)CC5)c4c3c2)cn1 (stereo not shown) [Compound 28, (4-(8-(1-methyl-1H-pyrazol-4-yl)-3H-pyrrolo[2,3-c]isoquinolin-1-yl)cyclohexyl)(piperazin-1-yl)methanone]",≤ 0.01
2,"Cn1cc(-c2ccc3cnc4c(c3c2)c([C@H]2CC[C@H](C(=O)O)CC2)cn4C)cn1 [Compound 47, 4-(3-methyl-8-(1-methyl-1H-pyrazol-4-yl)-3H-pyrrolo[2,3-c]isoquinolin-1-yl)cyclohexane-1-carboxylic acid]",≤ 0.01
3,O=C1Cc2c(ncc3cc(-c4cnco4)ccc23)N1 [Compound 83],0.1 to 1
4,"Cn1cc(-c2ccc3cnc4[nH]ncc4c3c2)cn1 [Compound 7, 8-(1-methyl-1H-pyrazol-4-yl)-3H-pyrazolo[3,4-c]isoquinoline]",0.01 to 0.1
5,O[C@@H]1CCN(c2cncc(-c3ccc4cnc5[nH]c(C6CCC6)cc5c4c3)c2)C1 [Compound 70],0.01 to 0.1
6,"O=C(O)[C@H]1C[C@@H](c2c[nH]c3ncc4ccccc4c32)C1 [Compound 32, (1s,3s)-3-(3H-pyrrolo[2,3-c]isoquinolin-1-yl)cyclobutane-1-carboxylic acid]",0.1 to 1
7,c1nc2c(ncc3ccc(-c4cncs4)cc32)[nH]1 [Compound 77],≤ 0.01
8,"Fc1ccc(-c2c[nH]c3ncc4ccc(-c5cn[nH]c5)cc4c23)cc1 [Compound 3, 1-(4-fluorophenyl)-8-(1H-pyrazol-4-yl)-3H-pyrrolo[2,3-c]isoquinoline]",0.01 to 0.1
9,"CN1CCC(c2c(C(F)(F)F)[nH]c3ncc4cc(-c5cnco5)ccc4c23)CC1 [Compound 57, 5-(1-(1-methylpiperidin-4-yl)-2-(trifluoromethyl)-3H-pyrrolo[2,3-c]isoquinolin-7-yl)oxazole]",> 1
10,"O[C@@H]1CCN(c2cncc(-c3ccc4cnc5[nH]cc(C6CCC6)c5c4c3)c2)C1 [Compound 67, (R)-1-(5-(1-cyclobutyl-3H-pyrrolo[2,3-c]isoquinolin-8-yl)pyridin-3-yl)pyrrolidin-3-ol]",≤ 0.01
11,"CN1CCN(C(=O)c2c[nH]c3ncc4ccc(-c5cccnc5)cc4c23)CC1 [Compound 10, (4-methylpiperazin-1-yl)(8-(pyridin-3-yl)-3H-pyrrolo[2,3-c]isoquinolin-1-yl)methanone]",0.1 to 1
12,"Cc1c(-c2cccc(C(=O)O)c2)[nH]c2ncc3ccncc3c12 [Compound 52, 3-(9-methyl-7H-pyrrolo[2,3-c][2,6]naphthyridin-8-yl)benzoic acid]",0.1 to 1
13,"c1ncc(-c2ccc3cnc4cc(C5CCOCC5)sc4c3c2)o1 [Compound 73, 5-(2-(tetrahydro-2H-pyran-4-yl)thieno[3,2-c]isoquinolin-8-yl)oxazole]",0.01 to 0.1
14,"Cn1c(=O)[nH]c2ncc(-c3ccc4cnsc4c3)cc21 [Compound 30, 6-(benzo[d]isothiazol-6-yl)-1-methyl-1,3-dihydro-2H-imidazo[4,5-b]pyridin-2-one]",0.1 to 1
15,"O=c1[nH]c2ncc3ccc(-c4cccnc4)cc3c2n1Cc1cccnc1 [Compound 11, 8-(pyridin-3-yl)-1-(pyridin-3-ylmethyl)-1,3-dihydro-2H-imidazo[4,5-c]isoquinolin-2-one]",0.1 to 1
16,"Cn1cc(-c2ccc3cnc4[nH]c(=O)n(C5CC(O)C5)c4c3c2)cn1 (stereo not shown) [Compound 21, 1-(3-hydroxycyclobutyl)-8-(1-methyl-1H-pyrazol-4-yl)-1,3-dihydro-2H-imidazo[4,5-c]isoquinolin-2-one]",0.01 to 0.1
17,"CN1CCC(C#Cc2ncc(-c3ccc4cnc5[nH]ccc5c4c3)s2)CC1 [Compound 61, 2-((1-methylpiperidin-4-yl)ethynyl)-5-(3H-pyrrolo[2,3-c]isoquinolin-8-yl)thiazole]",≤ 0.01
18,CC(C)CN1CCC(c2cc3c(ncc4ccc(-c5cncn5C)cc43)[nH]2)CC1 [Compound 87],0.01 to 0.1
19,"c1ncc(-c2ccc3cnc4sc(C5CCN(CC6CC6)CC5)nc4c3c2)s1 [Compound 86, 2-(1-(cyclopropylmethyl)piperidin-4-yl)-8-(thiazol-5-yl)thiazolo[5,4-c]isoquinoline]",0.01 to 0.1
20,"Cn1cc(-c2ccc3cnc4c(c3c2)CCO4)cn1 [Compound 74, 8-(1-methyl-1H-pyrazol-4-yl)-1,2-dihydrofuro[2,3-c]isoquinoline]",0.01 to 0.1
21,OCc1ccc2c(cnc3[nH]cc(-c4ccc(F)cc4)c32)c1 [Compound 5],0.01 to 0.1
22,"Cn1cc(-c2ccc3cnc4[nH]cc(C5CCN(S(C)(=O)=O)CC5)c4c3c2)cn1 [Compound 29, 8-(1-methyl-1H-pyrazol-4-yl)-1-(1-(methylsulfonyl)piperidin-4-yl)-3H-pyrrolo[2,3-c]isoquinoline]",≤ 0.01
23,"CN1CCC(c2nccc3c2cnc2[nH]cc(-c4ccncc4)c23)CC1 [Compound 44, 6-(1-methylpiperidin-4-yl)-1-(pyridin-4-yl)-3H-pyrrolo[2,3-c][2, 7]naphthyridine]",0.1 to 1
24,"Cn1cc(-c2ccc3cnc4c(c3c2)CC(=O)N4)cn1 [Compound 85, 8-(1-methyl-1H-pyrazol-4-yl)-1,3-dihydro-2H-pyrrolo[2,3-c]isoquinolin-2-one]",0.01 to 0.1

# Second part, the molecule after the results:
row,IC50 [µM],SMILES
1,0.01 to 0.1,"c1ncc(-c2ccc3cnc4c(c3c2)CCO4)s1 [Compound 75, 8-(thiazol-5-yl)-1,2-dihydrofuro[2,3-c]isoquinoline]"
2,0.01 to 0.1,"Cn1cc(-c2ccc3cnc4[nH]cc(C(=O)N5CCNCC5)c4c3c2)cn1 [Compound 12, (8-(1-methyl-1H-pyrazol-4-yl)-3H-pyrrolo[2,3-c]isoquinolin-1-yl)(piperazin-1-yl)methanone]"
3,≤ 0.01,Cc1c[nH]c2ncc3ccc(-c4cnc(C#CC5CCOCC5)s4)cc3c12 [Compound 63]
4,≤ 0.01,"Cc1c(C2CCN(CC(C)(C)O)CC2)[nH]c2ncc3ccc(-c4cnn(C)c4)cc3c12 [Compound 56, 2-methyl-1-(4-(1-methyl-8-(1-methyl-1H-pyrazol-4-yl)-3H-pyrrolo[2,3-c]isoquinolin-2-yl)piperidin-1-yl)propan-2-ol]"
5,0.1 to 1,O=C(O)c1ccc2c(cnc3c2cnn3CC2CCOCC2)c1 [Compound 71]
6,0.1 to 1,Cc1nc2ncc3ccc(-c4cnn(C)c4)cc3c2s1 [Compound 80]
7,≤ 0.01,C(#CC1CCOCC1)c1ncc(-c2ccc3cnc4[nH]ccc4c3c2)s1 [Compound 59]
8,≤ 0.01,"Cn1cc(-c2ccc3cnc4[nH]c(C5CCNCC5)cc4c3c2)cn1 [Compound 39, 8-(1-methyl-1H-pyrazol-4-yl)-2-(piperidin-4-yl)-3H-pyrrolo[2,3-c]isoquinoline]"
9,≤ 0.01,"Cc1c(C2CCN(C)CC2)[nH]c2ncc3ccc(-c4cnn(C)c4)cc3c12 [Compound 42, 1-methyl-8-(1-methyl-1H-pyrazol-4-yl)-2-(1-methylpiperidin-4-yl)-3H-pyrrolo[2,3-c]isoquinoline]"

# Same assay, conditions: Compounds of Formula (II); DYRK1A 1 nM, ATP 20 μM, Ser/Thr 18 peptide 2 μM, 90 minutes; read-out: DYRK1 IC50
row,IC50 [µM],SMILES
1,0.1 to 1,CN1CCC(c2cc3c(-c4cc5scnc5cn4)ccnc3[nH]2)CC1 [Compound 4]
2,0.01 to 0.1,CN1CCC(c2nc3c(-c4cn(C)c5cnccc45)ccnc3[nH]2)CC1 [Compound 5]

# Same assay, conditions: Compounds of Formula (III); DYRK1A 1 nM, ATP 20 μM, Ser/Thr 18 peptide 2 μM, 90 minutes; read-out: DYRK1 IC50
row,IC50 [µM],SMILES
1,0.05 to 0.2,CN1CCC(C#Cc2ncc(-c3ccc4cnn(C)c4c3)s2)CC1 [Compound 8]
2,0.05 to 0.2,CN1CCC(C(=O)Nc2ncc(-c3ccc4ncoc4c3)s2)CC1 [Compound 1]

# Same assay, conditions: Compounds of Formula (IV); DYRK1A 1 nM, ATP 20 μM, Ser/Thr 18 peptide 2 μM, 90 minutes; read-out: DYRK1 IC50
row,IC50 [µM],SMILES
1,1 to 5,CC(=O)N1CCc2c(cnc3[nH]cc(-c4cccnc4)c23)C1 [Compound 8]
2,0.5 to 1,Cn1ncc2cc3[nH]c(=O)n(-c4cccc(O)c4)c3cc21 [Compound 5]
